For one test, the system named is BAE cells. The experiment in a line: Viability assay (MIT assay), BAE cells. It is filed as cell-based, bovine. The settings on record: for EC50: Bos taurus.
Another test relates to HUE cells. The experiment in a line: Viability assay (MIT assay), HUE cells. It is filed as cell-based, human. As to conditions: for EC50: Homo sapiens, 48 h, 48 h incubation.
Another test relates to MDCK epithelial cells. The experiment in a line: Viability assay (MIT assay), MDCK cells. It is filed as cell-based, canine. As to conditions: for EC50: Canis lupus familiaris, 48 h, 48 h incubation. The protocol: The indicated values are expressed as the percentage of absorbance at 570 nm relative to the absorbance obtained by DMSO treated (control) cells.
Madin Darby canine kidney epithelial cells (MDCK; ATCC CLL-34) were grown in Dulbecco's Modified Eagle's Medium (DMEM) containing 10% FCS, penicillin and streptomycin.
Briefly, the cells were plated either at 3000 cells/well (low density) or 30000 cells/well (high density) onto 96 well plates and grown over night. […] The formazan cystals generated were subsequently dissolved in DMSO and absorption measured at 570 - 650 nm.

Test [1] deals with chorioallantoic membrane (CAM). The experiment in a line: Chorioallantoic membrane (CAM) assay. It is filed as in vivo, chick embryo. The settings on record: for %CAMs with non-perfused areas: Luconyl Blue injection, positive/total CAMs in parenthesis. The procedure: All experiments with chick embryos were performed in ovo. After aspiration of 2 ml of eggwhite from the pointed side of the egg, a window was cut into the eggshell on embryonic day 3 or 4 (E3, E4). The eggs were resealed with tape and further incubated until E9. […] Approximately 1 cm^2-pieces of the CAM were then cut out, washed in PBS and fixed in Carnoy's solution. After dehydration and embedding in paraffin, 8 µm sections were cut and stained with an anti-BrdU mouse monoclonal antibody (Boehringer Mannheim, Germany) according to the manufacturer's instructions. Counterstaining of the sections was performed with Gill's hematoxylin (Serva, Heidelberg, Germany). Sections were mounted using Aquamount (Merck, Darmstadt, Germany) and photos were taken with a Zeiss Axiophot microscope. […] Control pellets were prepared with an equal amount of Leupeptin or with DMSO as vehicle, respectively. To aid in the visualization of the vascular system, embryos and CAMs were then injected using pulled glass capillaries with 10% Luconyl Blue (BASF, Ludwigshafen, Germany) in PBS, and photographs were taken using a stereomicroscope with camera adapter.
In eight eggs the windows of the egg shells were enlarged under an operation microscope. After a peripheral incision in the CAM was made, the main artery was incised with a pair of ocular scissors, and a glass capillary (World Precision Instruments, Inc. Germany) pulled to the adequate diameter, was inserted and sealed with a drop of cyanoacrylate (Loctite®). Efflux was enabled by making another incision into a main draining vessel. The vascular system was flushed with up to 5 ml of prewarmed (37 -39°C) physiological saline (0.9% NaCI) under mechanically controlled pressure. […] After complete polymerization of the casting solution, the membranes were dissected and macerated in a solution of 5% potassium hydroxide (Fluka, Neu-Ulm, Germany) at 40°C for 1 - 2 days. The resulting corrosion casts of all specimens were freeze dried, mounted and sputter coated. Examination of the microvascular corrosion casts were carried out with a Stereoscan Mk-250 scanning electron microscope (Cambridge, England). Alternatively, in situ fixed CAM segments were cut out, processed for semi-thin sectioning and stained with methylene blue and Azur II. Selected specimens were trimmed for ultrathin sectioning, and counterstained with uranyl acetate and lead citrate.

The next test concerns caspase-3 like activity. The experiment in a line: Caspase activity in lysates of treated HUE cells, substrate Ac-DEVD-AMC. It is filed as cell-based, human. The settings on record: HUE cell lysates, 50 µM.
The next test deals with caspase-1 like activity. The experiment in a line: Caspase activity in lysates of treated HUE cells, substrate Ac-YVAD-AMC. It is filed as cell-based, human. The settings on record: HUE cell lysates, 50 µM, throughout the time course. The protocol:
Detection of a caspase-3-like activity in lysates of PSI-treated HUE cells. […] The specific caspase activities are shown as pmol of substrate hydrolyzed/min per µg of protein.
HUE cells (8 x 10^5) were plated onto 10 cm plastic dishes, allowed to attach overnight, and inhibitors were added to a final concentration of 50 µM for the times indicated in Fig. 4. DMSO, which served as the vehicle, was added to a final concentration of 0.1%. Floating and adherent cells were then harvested, lysed in Buffer I (1% Triton X100, 10 mM KCl, 20 mM HEPES pH 7.4, 1.5 mM MgCl2, 0.2 mM EGTA, 1 mM PMSF), snap frozen in liquid nitrogen and stored at -80°C until required. Lysates were centrifuged at 13000 g for 5 min at 4°C, the supernatants collected and protein concentrations determined using the BCA assay. A 40 µl aliquot of each sample was assayed in the presence of 20 µM Ac-DEVD-AMC or Ac-YVAD-AMC substrates (Bachem, Heidelberg, Germany) in Buffer II (50 mM PIPES-KOH pH 7.0, 0.1 mM EDTA, 1 mM DTT, 10% glycerol; total volume 250 µl) for 40 min at 37°C and the fluorescence intensity was measured with an excitation wavelength of 350 nm and emission wavelength of 430 nm. […] Specific activity was expressed as pmol AMC liberated per min and per µg protein in comparison to a standard curve calculated from the amount of free AMC (SIGMA, Deisenhofen, Germany).

Test [2] deals with subconfluent primary BAE cells. The experiment in a line: Apoptotic morphology (phase contrast, Hoechst 33342), BAE cells. It is filed as cell-based, bovine. As to conditions: subconfluent BAE cells; 50 µM for 15 - 24 h, or 10 µM after 48 hours.
The mark [3] stands for this setting: EC50 confluent versus subconfluent, 2880 min.
Setting [4] is: sub (low density, subconfluent).

The text below walks through data of EP1053750A1, “Use of proteasome-inhibitor for the induction of programmed cell death (apoptosis)” (Max-Planck-Gesellschaft zur Förderung der Wissenschaften …, priority 1999, dated 2000).

Peptide text beside a SMILES is read from it. * marks the point of attachment. Cbz = O=C(OCc1ccccc1)*; OtBu = CC(C)(C)O*

Procedure for caspase-3 like activity: Subconfluent endothelial cells were incubated with the inhibitors for the indicated times, lysed and caspase activities determined using Ac-DEVD-AMC for caspase-3-like enzymes and Ac-YVAD-AMC for caspase-1-like activities as described in the Material and Methods section (PSI, filled circles; LLnM, open square; E64, open triangles; Leupeptin, filled triangles; Pepstatin, filled squares). The specific caspase activities are shown as pmol of substrate hydrolyzed/min per µg of protein.
HUE cells (8 x 10^5) were plated onto 10 cm plastic dishes, allowed to attach overnight, and inhibitors were added to a final concentration of 50 µM for the times indicated in Fig. 4. DMSO, which served as the vehicle, was added to a final concentration of 0.1%. Floating and adherent cells were then harvested, lysed in Buffer I (1% Triton X100, 10 mM KCl, 20 mM HEPES pH 7.4, 1.5 mM MgCl2, 0.2 mM EGTA, 1 mM PMSF), snap frozen in liquid nitrogen and stored at -80°C until required. Lysates were centrifuged at 13000 g for 5 min at 4°C, the supernatants collected and protein concentrations determined using the BCA assay. […] Specific activity was expressed as pmol AMC liberated per min and per µg protein in comparison to a standard curve calculated from the amount of free AMC (SIGMA, Deisenhofen, Germany).

Regarding `CC[C@H](C)[C@H](NC(=O)OCc1ccccc1)C(=O)N[C@@H](CCC(=O)OC(C)(C)C)C(=O)N[C@@H](C)C(=O)N[C@H](C=O)CC(C)C` [PSI, carbobenzoxy-L-isoleucyl-y-t-butyl-L-glutamyl-L-alanyl-L-leucinal] (Cbz-IE(OtBu)AL-aldehyde), the x difference is 340 fold in the test on BAE cells (BAE, EC50 confluent versus subconfluent, 2880 min); 1119 fold in the test on HUE cells (setting [3]); 194 fold in the test on MDCK epithelial cells (setting [3]). Also, the EC50 in the test on BAE cells (96 h, BAE cells seeded at high density, grown to confluency for 4 days) is 8.15 µM; with BAE cells (BAE, con (grown to confluency for 4 days), 48 h incubation) it was 8.15 µM; in the test with BAE cells (BAE, sub (low density, subconfluent), 48 h incubation, viability reduced to 50% of DMSO control) it was 0.024 µM; in the test on HUE cells (con (grown to confluency)) it was 7.83 µM; in the test on HUE cells (setting [4]) it was 0.007 µM; in the test on MDCK epithelial cells (con (confluent)), 3.1 µM. This compound yielded an EC50 in the test on MDCK epithelial cells (setting [4]) of 0.016 µM. The “%CAMs with non-perfused areas” value in test [1] (0.31 µg/disc, methylcellulose disc on CAM for 48 h) is recorded as 0(0/10) %; in test [1] (1.0 µg/disc, methylcellulose disc on CAM for 48 h), 56.3 (18/32) %; in test [1] (3.1 µg/disc, methylcellulose disc on CAM for 48 h), 85.7 (12/14) %. Besides, the “densities of the capillary plexus and first order vessels (corrosion casts)” value in test [1] (CAM area directly under the disc) is “rarified”. Also, the “TUNEL labeling of cell nuclei in CAM sections” value in test [1] (methylcellulose disc on CAM for 48 h, cells in close contact with the disc) was “Intense labeling”. Further, the “time of maximum of Ac-DEVD-AMC cleavage” value with caspase-3 like activity came out at 15 h. In addition, in the test on caspase-1 like activity, the caspase-1 like activity entry is listed as “could not be detected”. Besides, the “morphological changes associated with programmed cell death” value in test [2] is “cytoplasmic shrinkage and bleb formation as well as extensive nuclear condensation and fragmentation”.
